Experiments:
PBG1 iPSCs [1] = experiment: Phase I directed differentiation of PBG1 iPSCs to hemogenic endothelium, immunofluorescence staining of CD31 and CD34; format: cell-based, human; settings: Laminin 521 matrix, versus control without WNT agonist
Description: FIG. 26A, FIG. 26B, and FIG. 26C depict immunofluorescence microscopy images of Day 6 Phase I cultures on Laminin 521. FIG. 26A depicts a control culture without WNT agonist.

PBG1 iPSCs [2] = settings: 0.6 uM in the first 48 hours of Phase I; Day 6+4; Laminin 521 matrix; versus control
PBG-1 iPSCs = experiment: Directed differentiation of PBG-1 to preMKs and MKs on a recombinant Laminin-521 matrix compared with Collagen IV, flow cytometry; format: cell-based, human; settings: 3 days of Phase III (Day 6+6+3); preMKs from Laminin-521 or Collagen IV cultures
Experimental: FIG. 23A, FIG. 23B, and FIG. 23C depict use of recombinant Laminin 521 to support production and release of megakaryocytic progenitors in Phase II of directed differentiation of PBG1 cells. FIG. 23A depicts representative flow cytometric data from Phase II of PBG1 differentiation cultures utilizing a supportive matrix of 4.2 ug/cm^2 human Collagen IV. FIG. 23B depicts representative flow cytometric data from Phase II of PBG1 differentiation cultures utilizing a supportive matrix of 0.13 ug/cm^2 recombinant human Laminin 521. FIG. 23C depicts the cumulative yields of released preMKs (i.e. viable CD41+CD43+CD14−) per 6-well equivalent (i.e. 2 ml of media, 9.5 cm^2 surface area) between day 6+4 and 6+8 of Phase II directed differentiation cultures initiated with PBG1 iPSCs, utilizing a supportive matrix of 4.2 ug/cm^2 human Collagen IV or 0.13 ug/cm^2 recombinant human Laminin 521.
FIG. 25A and FIG. 25B show flow cytometric subset breakdowns of Phase III (Day 6+6+3) cultures. […] Non-MKs are CD61−, Immature MKs are CD61+CD42a−CD42b−, Apoptotic MKs are CD61+CD42a+CD42b−, and Mature MKs are CD61+CD42a+CD42b+.
Collagen IV is purified from human placental material and is only available as a Research Use Only reagent. […]

## Cc1c[nH]c(-c2cnc(NCCNc3ccc(C#N)cn3)nc2-c2ccc(Cl)cc2Cl)n1 [CHIR99021]
PBG1 iPSCs [1]; 6 uM for the first 48 hours of differentiation only
  Phase I differentiation efficiency at day 6 (CD31 and CD34 staining): dramatic increase

## CHIR98014
PBG1 iPSCs [2]
  Phase II output of preMKs (visual estimation of the number of CD41+ cells): higher output during Phase II
PBG1 iPSCs [1]; 0.6 uM for the first 48 hours of differentiation only
  Phase I differentiation efficiency at day 6 (CD31 and CD34 staining): dramatic increase

## Laminin-521: recombinant human laminin 521, supportive matrix replacing Collagen IV for directed differentiation
PBG-1 iPSCs
  Proportion of CD61+ cells co-expressing CD42a and CD42b in Phase III versus Collagen IV: found to be similar

Reference: patent US12060576B2, “Compositions and methods for producing megakaryocytes” (Stellular Bio, Inc., priority 2018, dated 2024)
